Laboratory results taken from patent US20250152605A1, “METHOD AND DRUG FOR TREATING NEURONAL CEROID LIPOFUSCINOSIS” (priority 2021, published 2025).

Columns and labels:
[1] = test system: CLN3^Δex7/8 human neurons; test: Lysotracker staining of CLN3^Δex7/8 human neurons, flow cytometry; format: cell-based
Description: In analyzing the mean fluorescence intensity of neural stem cells and neuronal staining or single cell establishment of NRK cells, flow cytometry was used: the cell medium was aspirated off, after wash with dPBS once, the digestive enzyme corresponding to the cell type was added to digest into single cells; the supernatant was removed by centrifugation, and the cells were resuspended with 1 mL of fresh medium; the cell suspension with filtered through 40 μm filter membrane and the single cell filtrate was collected; the single cell filtrate was transferred to a flow tube and analyzed or sorted using BD FACS Aria III; in the analysis, the fluorescence intensity of 1×10^4 cells for each sample was analyzed to obtain the mean fluorescence intensity (MFI); for sorting, cells were received in 96 well plates with medium, one cell per well to establish a cell line.
Studies above have shown that CLN3^Δex7/8 human neurons feature lysosomal acidity dysregulation. To investigate the effect of Compound G on lysosomal acidity in CLN3^Δex7/8 neurons, Lysotracker dye was used for staining and flow cytometry was used for analyzing the fluorescence intensity of Lysotracker dye in cells.

[2] = test system: CLN3^Δex7/8 neurons; test: Intracellular relative ATP content (Cell Titer Glo); format: cell-based, human; conditions: same number of CLN3^Δex7/8 neurons
Description: Neural stem cells or neurons were digested into single cells and were counted using a hemocytometer. The cell suspension was then diluted to the same cell concentration (10^5˜10^6/mL). 100 μL of cell suspension was taken out into a white 96-well analysis plate, and 100 μL of CellTiter-Lumi™ Steady Plus reagent that had been equilibrated to room temperature was added, shaken to mix, and incubated at room temperature for 15 minutes. The chemiluminescence intensity of the sample was then read using a multifunctional microplate reader to indicate the intracellular relative ATP content.
To test the effect of compound G on mitochondrial homeostasis in CLN3^Δex7/8 neurons, fluorescently labeled mitochondrial outer membrane protein OMP25-GFP was overexpressed in neurons, and the morphological changes of mitochondria were observed by laser confocal microscope. […] The amount of ATP generation in the same number of neurons was tested using Cell Titer Glo reagent.

[3] = test system: CLN3^Δex7/8 human neural stem cells; test: qRT-PCR of autophagy-related and lysosomal genes in human neural stem cells; format: cell-based; conditions: 6 hours
Description: (§1) The cells in the cell-culture dish were collected, extracted using AxyPrep Total RNA Mini Prep Kit or Qiagen AxyPrep Total RNA Mini Prep Kit, and the extracted RNA concentration is measured using Nanodrop; the extracted mRNA was reverse transcribed into cDNA by Transgen's EasyScript® One-Step gDNA Removal and cDNA Synthesis SuperMix and the primers used for reverse transcription were Oligo dT primers; the completion of reverse transcription followed by qRT-PCR reaction through PerfectStart™ Green qPCR SuperMix to detect the expression of the target gene; the qRT-PCR reaction was performed on the Bio-Rad CFX96 Real-Time PCR system; see Table 2 and Table 3 for the 20 μL qRT-PCR reaction system and reaction procedures; data analysis was performed in Prism 7 software using the 2^−ΔΔCt process with GAPDH as internal reference for relative quantification of the expression of the target gene.
The effect of Compound G on the transcription level of the autophagy-related genes and the lysosomal genes was further detected in the induced CLN3^Δex7/8 human neural stem cells and neurons.

[4] = test system: CLN3^Δex7/8 human neural stem cells; test: Transcriptome sequencing (RNA-seq) of human neural stem cells; format: cell-based; conditions: 6 μM, 6 hours
Description: In order to detect the effect of Compound G on treated cells, transcriptome sequencing was performed on neural stem cells treated with Compound G, with specific steps as follows: CLN3^Δex7/8 human neural stem cells were seeded into 2% Matrigel-coated 6-well cell plates to a cell density of 80%; fresh cell culture medium containing 6 μM Compound G or an equal volume of DMSO was added, and each treatment condition for two biological replicates; the neural stem cells were incubated in a 37° C. cell culture incubator for 6 hours; the cell culture medium was aspirated, following by washing once with dPBS, and then intracellular RNA was extracted by Qiagen RNeazy Mini Plus Kit; the extracted RNA was sent to ANNOROAD for RNA quality testing first. The purity of RNA was tested using a Nanophotometer spectrophotometer; the concentration of RNA was tested using a Qubit 3.0 Flurometer; the integrity of the RNA was tested using the Aligent 2100 RNA Nano 6000 Assay kit; 2 μg of RNA was taken from each qualified sample for library construction and quantified using Qubit 3.0 Flurometer.
After diluting the library-building samples to 1 ng/μL, the Aligent 2100 RNA Nano 6000 Assay kit and qPCR were used for quality detection; Illumina's Hiseq PE Cluster kit was used for clustering, and the Hiseq 2500 sequencing platform was used for paired-end sequencing to obtain 150 bp paired-end sequencing reads; FastQC software was used to evaluate the quality of the raw data obtained from sequencing, then TrimGalore was used to remove adapter sequences and low-quality sequences, and filtered data was obtained for subsequent analysis.
Comparation between filtered data and human reference genome hg38 was carried with HISAT2, resulting in Bam file, and the number of counts aligned to each gene was counted by FeatureCount, with gtf (GRCh38.92) file provided by Ensembl as annotation. Ensembl IDs were converted to gene names by BiomaRt R package. The genes with fold change>2 and corrected p<0.05 were screened as differential genes, through differential genes expression analysis with DESeq2 software.
In order to explore the mechanism of Compound G in human neural stem cells, transcriptome sequencing experiments were conducted on wild-type human neural stem cells, CLN3^Δex7/8 human neural stem cells and CLN3^Δex7/8 human neural stem cells after treated with Compound G for 6 hours, and differentially expressed genes were analyzed. […] CLN3^Δex7/8 human neural stem cells treated and untreated with Compound G were clustered together (FIG. 29(b, c)). […] With regard to the RNA sequencing results, the effects of Compound G on the transcription level of TFEB, autophagy-related genes and lysosomal genes were also analyzed.

[5] = test system: p62; test: p62 transcription (qRT-PCR) and p62 protein level in human neurons; format: cell-based
Description: as §1
FIG. 41: Compound G increased intracellular p62 protein levels. (a) 24 hours after treatment of human neurons with Compound G or after KEAP1 knockdown, transcriptional levels of the p62 gene were detected by qRT-PCR (n=3). (b) 24 hours after treatment of human neurons with Compound G or after KEAP1 knockdown, intracellular p62 protein levels were detected by Western blotting and band intensity statistics (n=3) were performed. […]

## C/C=C1\C(=O)C[C@H]2[C@@H]3CCC4=CC(=O)CC[C@]4(C)[C@H]3CC[C@]12C [Compound G, (Z)-guggulsterone]
[1]
  Lysotracker fluorescence intensity in CLN3^Δex7/8 human neurons: increased significantly
[2]
  capacity of ATP generation: significantly increased
[3]
  transcription level of the autophagy-related genes or the lysosomal genes: did not significantly increase
[4]
  expression levels of NQO1, LPCAT1 and HLA-E: all increased
  gene expression profile (PCA analysis): did not produce a significant impact
  number of differential genes (fold change >2 and corrected p<0.05): 3
[4]; RNA sequencing
  differential expression folds of NRF2 downstream genes other than NQO1: less than 2
  expressions of multiple NRF2 downstream genes: elevated
  transcription level of TFEB and most autophagy-related genes and lysosomal genes: no significant effects
[5]; 24 hours, Western blotting
  p62 protein level: increase the p62 protein level
[5]; incubation for 24 hours, qRT-PCR
  transcription level of p62: significantly increase
